Reference: US20230390287A1, “MODULATORS OF PD-L1/PD-1 INTERACTION AND USES THEREOF” (Ramot at Tel-Aviv University Ltd., priority 2021, published 2023)
Entries after “also recorded” stand apart in the source; their conditions may differ.

Assays:
[1] = test system: MC38 expressing human PD-L1 (MC38-hPD-L1); test: MC38-hPD-L1 tumor model in humanized PD-1 mice; type: in vivo
Procedure: Male C57BL/6N-Pdcd1tm1^(huPDCD1-ICP11)Geno humanized for PD-1 (6 weeks old) were purchased from genOway and housed in an animal facility.
Male C57BL/6N humanized PD-1 mice were implanted with 1×10^6 MC38 cells expressing humanized PD-L1 (MC38-hPD-L1) subcutaneously in the right flank. Twelve days later, when tumor volumes reached approx. 60 mm^3 (40-110 mm^3) as measured by digital caliper, animals were randomized into the three treatment groups (n=6 per group). Compound 69 was administered via intraperitoneal (i.p.) injection at 10 mg/kg for 10 daily doses between study days 12 and 22. Similarly, vehicle control (5% (v/v) DMSO, 30% (v/v) polyethylene glycol (PEG) 300, 5% (v/v) Tween® 80, and double distilled (dd) H2O) was administered. The αPD-L1 antibody Atezolizumab was administered via i.p. injection at 10 mg/kg thrice weekly between study days 12 and 22. The tumor size and body weight were measured every 3 days. The tumor volume was determined by X^2Y0.5 (X, small diameter; Y, large diameter).
At day 30, the mice were euthanized, and MC38 tumors and spleens were collected. Tumor and spleen single-cell suspensions were obtained by mechanical disruption of the tissues. […] The obtained single-cell suspensions were then stained with fluorochrome-labelled antibodies and analyzed using a Cytek Aurora (Cytek) and FlowJo software (TreeStar). […]

[2] = test system: patient-derived melanoma (Mel4) spheroids with autologous PBMC; test: 3D patient-derived melanoma spheroid - PBMC co-culture; type: cell-based, human; settings: vs αPD-L1 and untreated
Procedure: 3D Patient-Derived Tumor Spheroids—Lymphocyte Co-Culture:
After isolation of tumor cells, cells were washed and cultured for up to 3 days. This allowed the isolation of adherent cells that were then scrapped and seeded in Nunclon Sphera 96-well plate (Thermo Fisher Scientific) to create a unique uniform spheroid in each well. Spheroids were ready on day 2-5. Thereafter, spheroids were embedded in reduced growth Matrigel (Corning) with PBMC (1:100) and were left untreated or were treated with the small-molecule inhibitor Compound 69 or αPD-L1, dissolved in the appropriate cell culture medium.
3D co-culture was fixed with 4% paraformaldehyde and blocked by PBS with 2% (m/v) BSA. Thereafter, the samples were incubated with CD8 (MA5-16345—Invitrogen) (1:50) in PBS with 1% (v/v) Tween® 20 for 18 hours at 4° C. Then, 4 μg/ml of secondary antibody (A-11008, Invitrogen) were added, 3D spheroids were stained with Hoechst 33342 (10 μg/ml) for 20 minutes. […] The different z-stacks were merged and analyzed by Fiji-ImageJ.
The ability of PD-1/PD-L1 inhibitors (small-molecule inhibitor Compound 69 and αPD-L1) to promote CD8^+ T-cell infiltration into the tumor site was evaluated using a 3D co-culture system. […] The CD8^+ T-cell infiltration (green) was evaluated after 72 hours of co-culture by confocal microscopy. […]

In the case of `CCCCCN(CCCCC)C(C)C(=O)c1cc(C)c2ccc3cc(C(C)C)ccc3c2c1.Cl` (stereo not shown) [Compound 69], the “tumor volume reduction relative to vehicle control” value ([1]; 10 mg/kg i.p., 10 daily doses) is reported as 93.6%, the “cytotoxic CD8+ tumor-infiltrating lymphocytes” value ([1]; tumors isolated at day 30, flow cytometry) is reported as “significant increase; also recorded: significantly outperformed the monoclonal antibody” and the “CD8+ T cell infiltration within the tumor spheroid” value ([2]; 72 hours of co-culture) is reported as “higher CD8^+ T cell infiltration”. The “sprouting of patient-derived melanoma cells” value ([2]; Mel4 spheroids) was “inhibited the melanoma cells sprouting; also recorded: strongly inhibited the sprouting”.
